For assay [1], the system named is Reserpine induced catalepsy. Put plainly: Acute Reserpine induced catalepsy test. The format is in vivo, rat. To be noted: vs only Reserpine-treated animals. The protocol: (§1) Animals were administered with Reserpine or CGS-21680 according to methods known to the skilled person in the art. These models and procedures are e.g. described by Ferré S. et al., Neurosci. Let., 1991, 130, 162; Ferré S. et al., Neuroscience, 1992, 51, 501; Kafka S. H. et al., Eur. J. Pharmacol., 1996, 295, 147; Rimondini R. et al., Neuropsychopharmacology, 1997, 17, 82 and are herein incorporated by reference. In the acute CGS-21680 induced catalepsy model (CGS model) the test compounds (TC, compounds according to the present invention) and CGS-21680 (i.p. 2 mg/kg) were administered 60 minutes before the start of the catalepsy bar measurement and behavioural testing described below (see also FIG. 1). In the acute Reserpine induced catalepsy model (RES model Resperine (subcutaneously, 3 mg/kg) was injected 24 h prior to the test compound application. Catalepsy bar measurement took place 60 minutes after test compound application (see FIG. 1). Test compounds were administered i.p. in DMSO in following doses (mg/kg): 0.1, 0.3, 1, 3, 10.
(§2) Dimethylsulfoxide (DMSO) was used as vehicle for the test compounds and Reserpine. Reserpine was dissolved in DMSO in a concentration of 3 mg/ml. A 10% (w/v) Cyclodextrin solution was used as vehicle for CGS-21680. CGS 21680 was dissolved in 10% (w/v) Cyclodextrine in a concentration of 2 mg/ml.
Apomorphine was used as a reference compound in the Reserpine induced catalepsy model. Apomorphine injection solution was diluted with purified water to a concentration of 0.3 mg/ml. The solution was administered subcutaneously (s.c.) in a volume of 1 ml/kg (0.3 mg/kg) 20 minutes before the begin of testing after Reserpine pre-treatment (25 hours prior to testing).
The catalepsy bar after Reserpine administration was measured (CAT) as follows: The rat was placed with its forepaws on a log of wood. […] The animal was tested for three trials and the time for each trial was noted. The following parameters were calculated: maximum time to descend (s) and median time to descend (s). […]
(§3) All statistical tests were performed two tailed with a value of p<0.05 considered as significant.
(§4) To assess the effects of CGS-21680 and Reserpine pre-treatment compared to vehicle treated controls statistical comparisons between the test groups were performed using a U test statistic.
To assess the effects of test compounds on CGS-21680 and Reserpine pre-treated animals correlation analyses including animals from test groups and the respective test compound-treated groups were performed.
Additionally, parametric and non-parametric comparisons for the median catalepsy measure were performed to assess the reliability of the method. In case of parametric testing a GLM analyses was performed including animals from a control group (only vehicle treated animals) and the respective test compound-treated groups with dose as a categorical factor. In case of a significant result, a Dunnett's post hoc test was performed between the according test compound groups and a control group as reference group. In case of non-parametric testing a Kruskal-Wallis H-test was performed including animals from a control group and the respective test compound groups. In case of a significant result single U-test comparisons were performed between a control group and the groups treated with different doses of the test compound.

Assay [2] has as its system CGS-21680 induced catalepsy. Put plainly: Acute CGS-21680 induced catalepsy test. Format: in vivo, rat. As to conditions: vs only CGS-21680-treated animals. Here is the method: as §1, §2
Caffeine was used as a reference compound in the CGS-21680 induced catalepsy model. A caffeine solution was prepared with water for injection purposes to a concentration of 30 mg/ml. The solution was administered intraperitoneally in a volume of 1 ml/kg (30 mg/kg) 30 minutes before the beginning of testing and after CGS-21680 pre-treatment (1 hour prior to testing).
The catalepsy bar after CGS-21680 administration was measured (CAT) as follows: The rat was placed with its forepaws on a log of wood. […] If the animal descended faster than 1 second, the trial was regarded as invalid. If more than 20 trials were rated as invalid, the values of all uncompleted trials were noted as 0. The animal was tested until five trials had been completed and the time for each trial was noted. Only the values of the last three trials were used for the analysis. The following parameters were calculated: maximum time to descend (s) and median time to descend (s).
Behavioural observation (BO) included the measurement of the body tone, inclined plane and grip strength.
The rat is taken in the hand of the observer and the animal's body tone is rated as normal, soft or hard. The rating is performed immediately after taking the animal from its home cage before performance of catalepsy testing. The following parameters were calculated: mean occurrence of hard body tone and mean occurrence of soft body tone.
The rat is horizontally placed to an inclined plane for a maximum time of 30 seconds. Time to reach bottom or top is measured. […] The test is performed after catalepsy testing. Time to leave the inclined plane(s) was measured.
The rat is put on a grip and the observer pulls the animal back on his tail. The strength (fore paws and hind paws) by which it holds on the grid is scored as grasping and pulling, grasping without pulling or no grasping. The test is performed after the inclined plane test. The following parameters were calculated: mean score of fore paw grip strength and mean score of hind paw grip strength.
as §3, §4
To assess the effects of test compounds on CGS-21680 and Reserpine pre-treated animals correlation analyses including animals from test groups and the respective test compound-treated groups were performed. […]

A further assay concerns the target Adenosine A2A (Homo sapiens, UniProt P29274). Put plainly: Radioligand binding assay 2, Adenosine A2A. Details: expressed in transfected cells; host or cells: HEK-293 cells. To be noted: at 1 μmol/l; human recombinant HEK-293 cells, [3H]CGS 21680; read-out: A2A AR % inhibition of agonist binding. Here is the method:
(§5) The assays were performed under the conditions described below. The literature references are also provided for each assay:
The adenosine A2A radioligand binding assay used is further described in Luthin D. R. et al., Mol. Pharmacol., 1995, 47 and is incorporated herein by reference.
(§6) The specific ligand binding to the receptors is defined as the difference between the total binding and the non-specific binding determined in the presence of an excess of unlabelled ligand. The results are expressed as a percent of control specific binding and as percent inhibition of control specific binding obtained in the presence of the test compounds.

In another assay the target is T1, Adenosine A1 (Homo sapiens, UniProt P30542).
T1 sequence (P30542 1-326): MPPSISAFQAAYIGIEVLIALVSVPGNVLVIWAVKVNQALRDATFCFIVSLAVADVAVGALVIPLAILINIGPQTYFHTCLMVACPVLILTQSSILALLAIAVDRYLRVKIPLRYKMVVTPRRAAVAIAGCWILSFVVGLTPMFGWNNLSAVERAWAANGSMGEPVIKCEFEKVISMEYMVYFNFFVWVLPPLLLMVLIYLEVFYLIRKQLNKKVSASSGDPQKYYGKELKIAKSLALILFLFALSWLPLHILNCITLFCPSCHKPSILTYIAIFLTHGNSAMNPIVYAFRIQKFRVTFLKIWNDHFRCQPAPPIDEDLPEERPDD
As to the kind of experiment: Radioligand binding assay 2, Adenosine A1. Details: expressed in transfected cells; host or cells: CHO cells. To be noted: at 1 μmol/l; human recombinant CHO cells, [3H]CCPA; read-out: A1 AR % inhibition of agonist binding. Here is the method: as §5
The adenosine A1 radioligand binding assay used is further described in Rivkees S. A. et al., J. Biol. Chem., 1995, 270, 20485 and is incorporated herein by reference.
as §6

The target of a further assay is T2, Adenosine A2B (Homo sapiens, UniProt P29275).
T2 construct: expressed in transfected cells; host or cells: HEK-293 cells
T2 sequence (P29275 1-332): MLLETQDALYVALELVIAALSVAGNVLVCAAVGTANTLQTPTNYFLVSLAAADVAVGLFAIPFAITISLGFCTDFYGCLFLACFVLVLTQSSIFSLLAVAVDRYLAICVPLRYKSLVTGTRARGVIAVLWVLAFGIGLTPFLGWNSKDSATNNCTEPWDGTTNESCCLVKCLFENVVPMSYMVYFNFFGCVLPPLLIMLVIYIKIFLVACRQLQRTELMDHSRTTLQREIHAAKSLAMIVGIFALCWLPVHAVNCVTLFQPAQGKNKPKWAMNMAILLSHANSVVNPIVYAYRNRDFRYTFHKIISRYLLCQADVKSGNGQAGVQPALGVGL
As to the kind of experiment: Radioligand binding assay 2, Adenosine A2B. As to conditions: at 1 μmol/l; human recombinant HEK-293 cells, [3H]MRS 1754; read-out: A2B AR % inhibition of agonist binding. The protocol: as §5
The adenosine A2B radioligand binding assay used is further described in Stehle J. H. et al., Mol. Endocrinol., 1992, 6, 384 and is incorporated herein by reference.
as §6

The target in the next assay is T3, Adenosine A3 (Homo sapiens, UniProt P0DMS8).
T3 construct: expressed in transfected cells; host or cells: HEK-293 cells
T3 sequence (P0DMS8 1-318): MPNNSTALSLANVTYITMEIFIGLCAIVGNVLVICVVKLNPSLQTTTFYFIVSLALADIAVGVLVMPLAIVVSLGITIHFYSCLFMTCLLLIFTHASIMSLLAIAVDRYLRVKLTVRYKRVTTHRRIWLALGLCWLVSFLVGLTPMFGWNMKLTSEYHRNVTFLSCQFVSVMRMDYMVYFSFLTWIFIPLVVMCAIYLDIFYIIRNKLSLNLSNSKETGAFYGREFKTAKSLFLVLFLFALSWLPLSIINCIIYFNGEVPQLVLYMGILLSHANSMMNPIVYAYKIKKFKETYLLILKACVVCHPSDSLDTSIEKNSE
Put plainly: Radioligand binding assay 2, Adenosine A3. To be noted: at 1 μmol/l; human recombinant HEK-293 cells, [125I]AB-MECA; read-out: A3 AR % inhibition of agonist binding. Here is the method:
as §5
The adenosine A3 radioligand binding assay used is further described in Salvatore C. A. et al., Proc. Natl. Acad. Sci. USA, 1993, 90, 10365 and is incorporated herein by reference.
as §6

Assay [3] has as its target T4, A2A adenosine receptors from rat striatum (Rattus norvegicus, UniProt P30543).
T4 construct: A2A adenosine receptors from rat striatum; from tissue; host or cells: rat striatum
As to the kind of experiment: Sodium chloride-shift experiment. The format is binding. To be noted: for Sodium Chloride-Shift Ki (+NaCl)/Ki (−NaCl): ratio. The protocol: The compounds were tested in a sodium chloride-shift experiment of whether they are functionally coupled to A2A adenosine receptors from rat striatum. […] The presence of a relatively high concentration of sodium chloride should not influence the affinity of the antagonists. However, the affinity of A2A AR agonists should be attenuated and therefore lead to an elevated IC50-value. […] This confirms the A2A-antagonistic function of the compounds. (Gao et al, Biochem. Pharmacol., 2000, 60, 669, herein incorporated by reference).

Setting [4] is: Ki (+100 mM NaCl) rA2A rat striatum [3H] MSX-2 (n = 3), +100 mM NaCl.
The mark [5] stands for this setting: Ki rA2A rat striatum [3H] MSX-2 (n = 3), without NaCl.

The values that follow come from patent US20080221134A1, “8-ALKYNYLXANTHINES AND DERIVATIVES” (priority 2006, published 2008).

Adenosine A2A, sequence (P29274 whole entry): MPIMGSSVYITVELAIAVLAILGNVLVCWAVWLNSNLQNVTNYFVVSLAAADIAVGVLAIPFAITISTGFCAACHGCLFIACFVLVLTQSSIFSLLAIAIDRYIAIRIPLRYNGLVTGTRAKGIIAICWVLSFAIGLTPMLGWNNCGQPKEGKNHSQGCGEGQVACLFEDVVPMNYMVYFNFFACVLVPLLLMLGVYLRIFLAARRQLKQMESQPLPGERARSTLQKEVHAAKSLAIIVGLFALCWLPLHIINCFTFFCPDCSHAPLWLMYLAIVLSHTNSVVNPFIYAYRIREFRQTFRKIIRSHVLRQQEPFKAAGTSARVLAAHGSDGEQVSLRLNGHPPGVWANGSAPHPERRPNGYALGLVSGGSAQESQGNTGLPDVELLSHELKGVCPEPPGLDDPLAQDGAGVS
T4 sequence (P30543 whole entry): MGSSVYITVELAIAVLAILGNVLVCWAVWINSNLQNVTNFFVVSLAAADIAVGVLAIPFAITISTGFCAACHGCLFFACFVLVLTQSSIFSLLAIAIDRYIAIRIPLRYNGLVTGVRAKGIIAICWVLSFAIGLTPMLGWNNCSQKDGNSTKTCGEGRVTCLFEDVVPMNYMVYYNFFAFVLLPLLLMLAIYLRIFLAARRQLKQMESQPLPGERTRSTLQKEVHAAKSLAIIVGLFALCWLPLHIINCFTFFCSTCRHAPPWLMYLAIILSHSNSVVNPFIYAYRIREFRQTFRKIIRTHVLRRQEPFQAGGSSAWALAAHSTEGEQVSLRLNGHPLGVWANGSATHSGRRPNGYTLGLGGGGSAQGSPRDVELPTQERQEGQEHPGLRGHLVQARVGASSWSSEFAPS

As for `CN1CCc2cccc3c2[C@H]1Cc1ccc(O)c(O)c1-3` [apomorphine, Apomorphine, reference compound], in assay [1], the “maximum catalepsy values after Reserpine treatment” value is “decreased” and the “median catalepsy values after Reserpine treatment” value is “decreased”.

As for `Cn1c(=O)c2c(ncn2C)n(C)c1=O` [caffeine, 1,3,7-trimethylxanthine, reference compound], in assay [2], the “hard body tone after CGS-21680 treatment” value was “increased”, the “maximum catalepsy values after CGS-21680 treatment” value is “significantly decreased”, the “median catalepsy values after CGS-21680 treatment” value is “significantly decreased” and the “soft body tone after CGS-21680 treatment” value is listed as “decreased”.

Take `C#CCn1c(=O)c2c(nc(C#Cc3cccc(OC)c3)n2C)n(C)c1=O` [drawing 607]: the inhibition at 1 µM at Adenosine A2A worked out at 81%; on Adenosine A1 it was 5%; at Adenosine A2B, 19%; on Adenosine A3 it was 24%.

On to `C#CCn1c(=O)c2c(nc(C#Cc3ccc(OC)c(OC)c3)n2C)n(CC)c1=O` [drawing 608], for which the inhibition at 1 µM on Adenosine A2A was 95%; on Adenosine A1 it was 4%; on Adenosine A2B, 14%; at Adenosine A3, 38%.

Regarding `C#CCn1c(=O)c2c(nc(C#Cc3ccc(OC)c(OC)c3)n2C)n(C)c1=O` [drawing 609], the inhibition at 1 µM at Adenosine A2A amounted to 85%; at Adenosine A1, 10%; on Adenosine A2B, 19%; at Adenosine A3, 16%.

Regarding `C#CCn1c(=O)c2c(nc(C#Cc3cccc(OC)c3)n2CC#C)n(C)c1=O` [drawing 610], the inhibition at 1 µM at Adenosine A2A turned out to be 86%; at Adenosine A1, 24%; on Adenosine A2B it was 22%; at Adenosine A3, 37%.

Regarding `C#CCn1c(=O)c2c(nc(C#Cc3cccc(OC)c3)n2C)n(CCCO)c1=O` [drawing 611], the inhibition at 1 µM is 93% on Adenosine A2A, 41% at Adenosine A1, 6% at Adenosine A2B and 37% at Adenosine A3.

Consider `C#CCn1c(=O)c2c(nc(C#Cc3ccc(OC)c(OC)c3)n2C)n(CCCO)c1=O` [drawing 612], for which the inhibition at 1 µM at Adenosine A2A came to 97%; at Adenosine A1 it was 34%; at Adenosine A2B it was 14%; at Adenosine A3, 36%.

For `C#CCn1c(=O)c2c(nc(C#Cc3cccc(OC)c3)n2C)n(C)c1=O` [drawing 614], the Ki in assay [3] (setting [4]) came out at 33.2 ± 9.9 nM; in assay [3] (setting [5]), 30.9 ± 8 nM. Also, the “Sodium Chloride-Shift Ki (+NaCl)/Ki (−NaCl)” value (from here on “Sodium Chloride-Shift Ki”) in assay [3] was found to be 0.97 ± 0.03.

In the case of `C#CCn1c(=O)c2c(nc(C#Cc3cccc(C)c3)n2C)n(C)c1=O` [drawing 615], the Ki was determined as 53.1 ± 5.9 nM in assay [3] (setting [4]) and 43.4 ± 11.6 nM in assay [3] (setting [5]). Further, the “Sodium Chloride-Shift Ki” value in assay [3] is 1.19 ± 0.16.

For `C#CCn1c(=O)c2c(nc(C#Cc3cccc(Cl)c3)n2C)n(C)c1=O` [drawing 616], the Ki in assay [3] (setting [4]) is 39.5 ± 13.1 nM; in assay [3] (setting [5]) it was 46 ± 9 nM. Further, the “Sodium Chloride-Shift Ki” value in assay [3] stood at 0.82 ± 0.13.

As usually defined, the inhibition is the drop in the measured response relative to a control, in per cent. In general, Ki refers to the dissociation constant of the complex between target and ligand, obtained from inhibition or displacement.
